US12453349B2, “Compositions comprising pyridine carboxylate herbicides and 4-hydroxyphenyl-pyruvate dioxygenase (HPPD) inhibitor herbicides” (Corteva Agriscience LLC, priority 2018, dated 2025)
Values joined by “and” are separate entries in the source; they are usually repeats but may differ in a detail not shown here. Equal values may be shown once.

Columns and labels:
Assay type in all cases: in vivo
[1] = tested on: HORVS, Hordeum vulgare (spring barley); assay: Greenhouse postemergence phytotoxicity on crop, visual injury 20-22 d after application
Excerpt: (§1) Seeds of the desired test plant species were planted in a 90:10% v/v (volume/volume) mixture of PRO-MIX® BX (Premier Tech Horticulture, Quakertown, PA, USA) and PROFILE® GREENS GRADE™ (Profile Products LLC, Buffalo Grove, IL, USA) planting mixture, which typically has a pH of 5.2 to 6.2 and an organic matter content of at least 50 percent, in plastic pots with a surface area of 103.2 square centimeters (cm^2). In some aspects, to help ensure good germination and healthy plants, a fungicide treatment and/or other chemical or physical treatment was applied. The plants were grown for 7-36 days (d) in a greenhouse with an approximate 14-hour (h) photoperiod which was maintained at about 23° C. during the day and 22° C. during the night. Nutrients and water were added on a regular basis and supplemental lighting was provided with overhead metal halide 1000-Watt lamps as necessary. The plants were employed for testing when they reached the second or third true leaf stage.
(§2) Emulsifiable concentrates of each of each pyridine carboxylate herbicide (Compound A or Compound B) were prepared at 100 grams acid equivalent per liter (g ae/L). The emulsifiable concentrates also included a safener, cloquintocet mexyl, at 120 grams active ingredient per liter (g ai/L). An aliquot of each emulsifiable concentrate was placed in a 25 mL glass vial and diluted with an aqueous mixture of 1.25% (v/v) ACTIROB® B esterified rapeseed oil (Bayer Crop Science, Research Triangle Park, NC, USA) or MSO® Concentrate with LECI-TECH® methylated soybean oil (Loveland Products, Loveland, CO, USA) to obtain concentrated stock solutions at the highest application rate for each herbicide, based upon a 12 milliliter (mL) application volume at a rate of 187 liters per hectare (L/ha). The concentrated stock solutions were further diluted with an aqueous mixture of 1.25% v/v ACTIROB® B or MSO® Concentrate with LECI-TECH® to obtain stock solutions at reduced application rates for each herbicide. Spray solutions of the herbicide combinations (Compound A or Compound B plus HPPD inhibitor herbicide) were prepared by adding weighed amounts or aliquots of the HPPD inhibitor herbicides to the stock solutions of Compound A or Compound B to form 12-mL spray solutions in two-way combinations.
(§3) The spray solutions were applied to the plant material with an overhead Mandel track sprayer equipped with 8002E nozzles calibrated to deliver 187 L/ha over an application area of 0.503 square meters (m^2) at a spray height of 18 inches (43 centimeters (cm)) above the average plant canopy. Control plants were sprayed in the same manner with the solvent blank. All pyridine carboxylate herbicide (component a) application rates are given as “g ae/ha” and all HPPD inhibitor herbicide (component b) application rates are given as “g ai/ha.”
(§4) The treated plants and control plants were placed in a greenhouse as described above and watered by sub-irrigation to prevent wash-off of the test compounds. After 20-22 d, the condition of the test plants as compared with that of the control plants was determined visually and scored on a scale of 0 to 100 percent where 0 corresponds to no injury and 100 corresponds to complete kill.

[2] = tested on: TRZAS, Triticum aestivum (spring wheat); assay: as above
Excerpt: as §1, §2, §3, §4

[3] = tested on: KCHSC, Kochia scoparia (kochia); assay: Greenhouse postemergence herbicidal effect, visual injury 20-22 d after application; conditions: Bassia scoparia, post-emergence, KCHSC, read-out: % visual injury Obs
Excerpt: as §1, §2, §3, §4

[4] = tested on: BRSNN, Brassica napus (spring rape); assay: as above; conditions: Compound A 10 g ae/ha
Excerpt: as §1, §2, §3, §4

[5] = tested on: ABUTH, Abutilon theophrasti (velvetleaf); assay: as above
Excerpt: as §1, §2, §3, §4

[6] = tested on: MATCH, Matricaria chamomilla (wild chamomile); assay: as above
Excerpt: as §1, §2, §3, §4

[7] = tested on: IPOHE, Ipomoea hederacea (ivyleaf morningglory); assay: as above
Excerpt: as §1, §2, §3, §4

[8] = tested on: DIGSA, Digitaria sanguinalis (large crabgrass); assay: as above
Excerpt: as §1, §2, §3, §4

[9] = tested on: POLCO, Polygonum convolvulus (wild buckwheat); assay: as above; conditions: Compound A 10 g ae/ha
Excerpt: as §1, §2, §3, §4

[10] = tested on: CHEAL, Chenopodium album L. (common lambsquarters); assay: as above
Excerpt: as §1, §2, §3, §4

[11] = tested on: STEME, Stellaria media (chickweed); assay: as above
Excerpt: as §1, §2, §3, §4

[12] = tested on: VIOTR, Viola tricolor (wild pansy); assay: as above
Excerpt: as §1, §2, §3, §4

[13] = tested on: ECHCG, Echinochloa crus-galli (barnyard grass); assay: as above
Excerpt: as §1, §2, §3, §4

[14] = tested on: SASKR, Salsola kali (Russian thistle); assay: as above
Excerpt: as §1, §2, §3, §4

[15] = tested on: SINAR, Sinapis arvensis (wild mustard); assay: as above
Excerpt: as §1, §2, §3, §4

[16] = tested on: AMARE, Amaranthus retroflexus (pigweed); assay: as above
Excerpt: as §1, §2, §3, §4

[17] = tested on: BRSNW, Brassica napus (winter rape); assay: as above
Excerpt: as §1, §2, §3, §4

[18] = tested on: LOLMU, Lolium multiflorum (Italian ryegrass); assay: as above
Excerpt: as §1, §2, §3, §4

[19] = tested on: SETFA, Setaria faberi (giant foxtail); assay: as above
Excerpt: as §1, §2, §3, §4

[20] = tested on: HELAN, Helianthus annuus (common sunflower); assay: as above
Excerpt: as §1, §2, §3, §4

[21] = tested on: EPHHL, Euphorbia heterophylla (poinsettia); assay: as above
Excerpt: as §1, §2, §3, §4

N#CCOC(=O)c1nc(-c2ccc3cc[nH]c3c2F)c(F)c(N)c1Cl [Compound A, cyanomethyl 4-amino-3-chloro-5-fluoro-6-(7-fluoro-1H-indol-6-yl)pyridine-2-carboxylate]
% visual injury Obs ([1]; Compound A 7.5 g ae/ha): 8% and 0%
% visual injury Obs ([1]; Compound A 10 g ae/ha): 0%
% visual injury Obs ([2]; Compound A 7.5 g ae/ha): 0%
% visual injury Obs ([2]; Compound A 10 g ae/ha): 0%
pest or weed control at 7.5 g/ha ([3]; Compound A 7.5 g ae/ha): 63%
pest or weed control at 10 g/ha ([3]; Compound A 10 g ae/ha): 70%
% visual injury Obs [4]: 45% and 60%
% visual injury Obs ([5]; Compound A 7.5 g ae/ha): 40%
% visual injury Obs ([5]; Compound A 10 g ae/ha): 48%
% visual injury Obs ([6]; Compound A 7.5 g ae/ha): 10% and 18%
% visual injury Obs ([6]; Compound A 10 g ae/ha): 20% and 30%
% visual injury Obs ([7]; Compound A 7.5 g ae/ha): 5%
% visual injury Obs ([7]; Compound A 10 g ae/ha): 0%
% visual injury Obs ([8]; Compound A 7.5 g ae/ha): 13%
% visual injury Obs ([8]; Compound A 10 g ae/ha): 25%
% visual injury Obs [9]: 70% and 43%
% visual injury Obs ([10]; Compound A 7.5 g ae/ha): 75% and 70%
% visual injury Obs ([10]; Compound A 10 g ae/ha): 80% and 78%
% visual injury Obs ([11]; Compound A 7.5 g ae/ha): 90%
% visual injury Obs ([11]; Compound A 10 g ae/ha): 85%
% visual injury Obs ([12]; Compound A 7.5 g ae/ha): 3%
% visual injury Obs ([12]; Compound A 10 g ae/ha): 3%
% visual injury Obs ([13]; Compound A 7.5 g ae/ha): 80%
% visual injury Obs ([13]; Compound A 10 g ae/ha): 88%
% visual injury Obs ([14]; Compound A 7.5 g ae/ha): 60%
% visual injury Obs ([14]; Compound A 10 g ae/ha): 63%
% visual injury Obs ([15]; Compound A 7.5 g ae/ha): 83% and 85%
% visual injury Obs ([15]; Compound A 10 g ae/ha): 88%
% visual injury Obs ([16]; Compound A 7.5 g ae/ha): 80% and 90% and 70%
% visual injury Obs ([16]; Compound A 10 g ae/ha): 85% and 90%
% visual injury Obs ([17]; Compound A 7.5 g ae/ha): 35% and 63%
% visual injury Obs ([17]; Compound A 10 g ae/ha): 40% and 68%
% visual injury Obs ([18]; Compound A 7.5 g ae/ha): 8%
% visual injury Obs ([18]; Compound A 10 g ae/ha): 3%
% visual injury Obs ([19]; Compound A 7.5 g ae/ha): 60%
% visual injury Obs ([19]; Compound A 10 g ae/ha): 78%
% visual injury Obs ([20]; Compound A 7.5 g ae/ha): 83%
% visual injury Obs ([20]; Compound A 10 g ae/ha): 88%
% visual injury Obs ([21]; Compound A 7.5 g ae/ha): 91%
% visual injury Obs ([21]; Compound A 10 g ae/ha): 83%
